Source: patent US20240381870A1 (priority 2024, published 2024)

Assays:
[1] = system: wheat scab; type: in vivo; conditions: in words; field experiments of both sites (Tables 3 and 4)
[2] = system: Fusarium pseudogramineaqum; type: cell-based
[3] = system: Fusarium graminearum; type: cell-based; conditions: mycelial growth inhibition, PDA, 25° C.

| Structure (SMILES) | control effect on wheat scab [1] | EC50 ppm [2] [ppm] | EC50 ppm [3] [ppm] |
| --- | --- | --- | --- |
| CCCN(CCOc1c(Cl)cc(Cl)cc1Cl)C(=O)n1ccnc1 [Prochloraz(P), Prochloraz] | significant control effect | 0.2311 | 0.2663 |
| O=C(NC1CCC1c1ccc(Cl)cc1Cl)c1cccnc1C(F)(F)F (stereo not drawn) [Cyclobutrifluram(C), Cyclobutrifluram] | significant control effect | 0.1276 | 0.3744 |
